Experimental data published in patent US20140272041A1, “METHODS OF REDUCING PATHOGENS DURING PROCESSING OR POST-PROCESSING OF BEEF, POULTRY AND OTHER MEAT PRODUCTS” (BIRKO Corporation, priority 2009, published 2014).
Read-outs that look alike come from different tables or passages of the source.

Experiments:
[1] = system: E. coli ATCC 43888 (O157:H7); test: Log kill in aqueous bacterial suspension, plating on TSA; format: cell-based, Escherichia coli
E. coli ATCC 12435 = test: Log kill / surviving titer in aqueous bacterial suspension, plating on TSA; format: cell-based, Escherichia coli; conditions: […] wt./wt. % WAC in 2.5% lactic acid, 15 seconds, 74 to 80 degrees F.
Procedure: The “reaction” (i.e. interaction of antimicrobial agent and the target organism) was initiated by the addition of bacteria to the antimicrobial solution. The reaction was allowed to proceed for the respective time periods listed in Table I (i.e., at least 15 seconds each) and was terminated at the end of that time by adding quench buffer comprising 3.2 M potassium phosphate buffer, pH 7.2. The sample then was evaluated using serial 10-fold dilutions into sterile phosphate buffer as needed to determine, on Tryptic Soy agar (“TSA”), the titer of surviving bacteria. TSA is a medium that allows the growth of most bacteria.
The reduction in the bacterial count is expressed as the “log kill” which is defined as log10 [initial cfu/ml]−log10 [remaining cfu/ml]; where “cfu” refers to “colony forming unit.” All log kills reported herein are positive “base 10.”). Inasmuch as the standard assay mixture contained only ca. 25×10^6 cfu initially (equivalent to 7.398 log) the theoretical maximum kill that can be measured with this assay system is ca. 7.4 log and the practical measuring limit is ca. 6 log. Therefore, high levels of log reduction were monitored by plating reaction mixtures directly (without dilution) onto agar medium. The results are reported in Table I and illustrated in graph format in FIG. 1. […] The tests were replicated with E. coli ATCC 43888, a pathogenic strain of E. coli O157:H7. […]
After incubation for 15 seconds at ambient temperature the reaction was quenched by addition of phosphate buffer and the titer of surviving bacteria was determined by plating on TSA as described in the previous examples. […] The amphoteric and zwitterionic surfactants, which carry a net positive charge under the conditions of the reaction mixture, caused enhancement of the log kill by lactic acid. All anionic surfactants tested caused substantial enhancement of the log kill by lactic acid.

[2] = system: Salmonella enterica, ATCC 14028; test: Log kill in aqueous bacterial suspension, plating on TSA; format: cell-based; conditions: 15 seconds, c. 74° F.
Procedure: As before, reaction mixtures were incubated for 15 seconds at room temperature (c. 74° F.). The results are depicted in Table XII and graphed in FIG. 12.
However, in this example the effectiveness of such mixtures was tested against Salmonella enterica, ATCC 14028. […] The balance was water. Increasing amounts of these “reagents” were added to a series of reaction tubes.
As before each reaction was initiated by the addition of bacteria, incubated at ambient temperature for 15 seconds and terminated by addition of quench buffer. The tests were performed at room temperature. The bacterial titer of each mixture was determined by preparation and plating of serial dilutions on TSA. The results for both reagents are reported in Table XIII and graphed in FIG. 13.

[3] = system: Escherichia coli serotype O157:H7 (ATCC 43888); test: Log reduction on inoculated meat samples by immersion
Procedure: Meat samples were allowed to equilibrate to ambient temperature (74° F.) and inoculated with 25 μl of a late log phase culture of either Escherichia coli serotype O157:H7 (ATCC 43888) or Salmonella enterica serovar Typhimurium (ATCC 14028). Samples were allowed to rest for 10 minutes for the bacteria to attach. After attachment the inoculated samples were immersed in the treatment solutions as detailed in each experiment described below. After immersion, meat samples were immediately placed into a sterile Whirlpack Bag with 10-15 ml of neutralizing buffer to inactivate any residual antimicrobial on the meat surface. Samples were massaged for 3 minutes to extract surviving bacteria from the meat. Bacterial counts in the fluid were enumerated by plating on Violet Red Bile Agar (E. coli) or Salmonella Shigella Agar (Salmonella) and counting colonies after at least 16-24 hours of incubation. […]

[4] = system: Salmonella enterica serovar Typhimurium (ATCC 14028); test: as above; conditions: 5% (w/w) total acid (60% lactic+40% citric acid) + 1200 ppm SLS, meat samples immersed 3 minutes at 108° F. (Meat Experiment #43)
Procedure: Meat samples were allowed to equilibrate to ambient temperature (74° F.) and inoculated with 25 μl of a late log phase culture of either Escherichia coli serotype O157:H7 (ATCC 43888) or Salmonella enterica serovar Typhimurium (ATCC 14028). Samples were allowed to rest for 10 minutes for the bacteria to attach. After attachment the inoculated samples were immersed in the treatment solutions as detailed in each experiment described below. After immersion, meat samples were immediately placed into a sterile Whirlpack Bag with 10-15 ml of neutralizing buffer to inactivate any residual antimicrobial on the meat surface. Samples were massaged for 3 minutes to extract surviving bacteria from the meat. Bacterial counts in the fluid were enumerated by plating on Violet Red Bile Agar (E. coli) or Salmonella Shigella Agar (Salmonella) and counting colonies after at least 16-24 hours of incubation.
The meat samples described in Example 16 were treated with 5% (w/w) total acid (60% lactic+40% citric acid) with addition of 1200 ppm of the anionic surfactant sodium lauryl sulfate (SLS) for 3 minutes at 108° F.

[5] = 1200 ppm SLS, 5% total acid at ratio 4:6 citric acid:lactic acid, 2 minutes at 109-111° F., control 5% lactic acid only
[6] = 1400 ppm SLS added to 5% total acid 60:40 lactic:citric, 3 minutes at 109° F.

**Q.** Which “Log Kill” value [1] does the source give for `CCCCCCCCCCCCOS(=O)(=O)[O-].[Na+]` [Sodium Lauryl Sulfate, sodium lauryl sulfate] here?
**A.** 4.8 log

**Q.** What about the “in 2.5% Lactic Acid (Log Kill)” value [1] of the same compound?
**A.** 5.81 log

**Q.** And the “in […] Lactic Acid (Log Kill)” value [1]?
**A.** 5.83 log

**Q.** What about the “Log Kill” value ([1]; sodium lauryl sulfate 0.004 wt./wt. % in […] lactic acid, 15 seconds, 75 degrees F.) of the same compound?
**A.** 2.08 log

**Q.** What about the “Log Kill” value ([1]; sodium lauryl sulfate 0.012 wt./wt. % in […] lactic acid, 15 seconds, 75 degrees F.) of the same compound?
**A.** 5.92 log

**Q.** And the “Log Kill” value ([1]; sodium lauryl sulfate 0.016 wt./wt. % in […] lactic acid, 15 seconds, 75 degrees F.)?
**A.** 5.92 log

**Q.** And the “in 2.5% Lactic Acid (Log Kill)” value ([1]; sodium lauryl sulfate 0.02 wt./wt. % in 2.5% lactic acid)?
**A.** 4.81 log

**Q.** What about the “in 2.5% Lactic Acid (Log Kill)” value ([1]; sodium lauryl sulfate 0.04 wt./wt. % in 2.5% lactic acid) of the same compound?
**A.** 4.81 log

**Q.** What about the “in […] Lactic Acid (Log Kill)” value ([1]; sodium lauryl sulfate 0.04 wt./wt. % in […] lactic acid, 15 seconds, 75 degrees F.) of the same compound?
**A.** 5.83 log

**Q.** What about the “in 2.5% Lactic Acid (Log Kill)” value ([1]; sodium lauryl sulfate 0.06 wt./wt. % in 2.5% lactic acid) of the same compound?
**A.** 5.81 log

**Q.** What about the “in […] Lactic Acid (Log Kill)” value ([1]; sodium lauryl sulfate 0.06 wt./wt. % in […] lactic acid, 15 seconds, 75 degrees F.) of the same compound?
**A.** 5.34 log

**Q.** And the “in 2.5% Lactic Acid (Log Kill)” value ([1]; sodium lauryl sulfate 0.10 wt./wt. % in 2.5% lactic acid)?
**A.** 5.81 log

**Q.** What about the “in […] Lactic Acid (Log Kill)” value ([1]; sodium lauryl sulfate 0.10 wt./wt. % in […] lactic acid, 15 seconds, 75 degrees F.) of the same compound?
**A.** 5.83 log

**Q.** And the “Log Kill (Lactic Acid + Surfactant)” value (E. coli ATCC 12435)?
**A.** 6.43 log

**Q.** What about the “Log Kill” value ([2]; sodium lauryl sulfate 0.004 wt./wt. % in […] lactic acid) of the same compound?
**A.** 3.82 log

**Q.** And the “Log Kill” value ([2]; sodium lauryl sulfate 0.008 wt./wt. % in […] lactic acid)?
**A.** 4.4 log

**Q.** What about the “Log Kill” value ([2]; sodium lauryl sulfate 0.012 wt./wt. % in […] lactic acid) of the same compound?
**A.** 5.489 log

**Q.** And the “Log Kill” value ([2]; sodium lauryl sulfate 0.016 wt./wt. % in […] lactic acid)?
**A.** 5.489 log

**Q.** And the “Log Kill” value ([2]; sodium lauryl sulfate 0.020 wt./wt. % in […] lactic acid)?
**A.** 5.97 log

**Q.** What about the “effect of increasing SLS concentration on kill by lactic acid” value ([3]; 4% (w/w) lactic acid with 0-1700 ppm sodium lauryl sulfate, 2 minutes at 108° F.) of the same compound?
**A.** enhanced kill

**Q.** And the “enhancement of reduction when SLS is included” value [3, 5]?
**A.** ca. 1.6 log

**Q.** What about the “increase of microbial reduction when SLS is included” value [3, 5] of the same compound?
**A.** 40 fold

**Q.** What about the “enhancement of reduction when SLS is included” value [3, 6] of the same compound?
**A.** ca. 1.6 log

**Q.** And the “increase of microbial reduction when SLS is included” value [3, 6]?
**A.** 40 fold

**Q.** And the “Log Reduction” value [4]?
**A.** 3.28 log
